Measurements published in patent publication US12304905B2, “Pharmaceutical salts of benzothiazol compounds, polymorphs and methods for preparation thereof” (priority 2019, dated 2025).
Values after ≈ are worked out from the molar mass of the structure shown. Read-outs that look alike come from different tables or passages of the source.

Tests used:
Format in all cases: physicochemical
[1] = Dynamic Vapor Sorption (DVS) of free base
Description: Samples (˜10 mg) were transferred into a DVS instrument and recorded the weight change with respect to the atmospheric humidity at 25° C. using the following parameters: • Equilibrium: dm/dt: 0.01%/min. (for min: 10 min and max: 180 min). • Drying: 0% RH for 120 min • RH (%) measurement step: 10% • RH (%) measurement step scope: 0-90-0% (6) Proton Nuclear Magnetic Resonance (1H NMR) • 400 MHz Bruker with DMSO-d6 or MeOH-d4 solvents • Temperature: 27° C.
(1S,2S)-2-fluoro-N-(6-(4-methylpyridin-3-yl)benzo[d]thiazol-2-yl)cyclopropane-1-carboxamide free base appears as light yellow powder. Subsequently, the physical and thermal properties of free base were characterized. […] This free base form was named as Pattern A.

[2] = Solubility test of free base in solvents
Description: About 4 mg of (1S,2S)-2-fluoro-N-(6-(4-methylpyridin-3-yl)benzo[d]thiazol-2-yl)cyclopropane-1-carboxamide was weighed into a 2.0 mL glass vial and then selected solvents was added in the vial stepwise until all the solid was dissolved. The experiment was conducted by manual dilution combined with visual observation at 25° C. and 50° C. The total volume of solvent added was recorded.

[3] = Solubility test of free base in bio-relevant media and buffers; details: for solubility at 24 h: thermodynamic from solid
Description: About 5 mg starting free base were weighed in 2 mL vials. Then 1.0 mL biorelevant media (SGF, FaSSIF and FeSSIF) and buffers were added into the vials. All the vials were placed on the thermo-mixer and kept at 37° C. (700 r/m in). After shaking at 37° C. for 24 hrs, mother liquids obtained by filtration were analyzed by HPLC directly or after being diluted by ACN/water for 20-40 times.

Hygroscopicity (DVS) [1]: Hygroscopic
DVS (ΔW %, 80% RH) ([1]; 25° C., 80% RH): 2.30%
Form change (Yes/No, XRPD) ([1]; XRPD, listed after DVS): (No)
solubility ([2]; aqueous with cosolvent or surfactant or cyclodextrin, thermodynamic from solid, Acetone/H2O (1/1, v/v), 25° C., read-out: Solubility): < 5000 µg/mL
solubility ([2]; aqueous with cosolvent or surfactant or cyclodextrin, thermodynamic from solid, Acetone/H2O (1/1, v/v), 50° C., read-out: Solubility): < 5000 µg/mL
solubility ([2]; aqueous with cosolvent or surfactant or cyclodextrin, thermodynamic from solid, EtOH/H2O (1/1, v/v), 25° C., read-out: Solubility): < 5000 µg/mL
solubility ([2]; aqueous with cosolvent or surfactant or cyclodextrin, thermodynamic from solid, EtOH/H2O (1/1, v/v), 50° C., read-out: Solubility): < 5000 µg/mL
solubility ([2]; in DMF and DMSO): relatively high solubility
solubility ([2]; in mostly common use solvents): relatively low solubility
solubility ([2]; organic solvent or mixture, thermodynamic from solid, 1,4-dioxane, 25° C., read-out: Solubility): < 5000 µg/mL
solubility ([2]; organic solvent or mixture, thermodynamic from solid, 1,4-dioxane, 50° C., read-out: Solubility): 7000 to 10000 µg/mL (≈ 21.4 to 30.5 mM)
solubility ([2]; organic solvent or mixture, thermodynamic from solid, 2-Propanol (IPA), 25° C., read-out: Solubility): < 5000 µg/mL
solubility ([2]; organic solvent or mixture, thermodynamic from solid, 2-Propanol (IPA), 50° C., read-out: Solubility): < 5000 µg/mL
solubility ([2]; organic solvent or mixture, thermodynamic from solid, Acetone, 25° C., read-out: Solubility): < 5000 µg/mL
solubility ([2]; organic solvent or mixture, thermodynamic from solid, Acetone, 50° C., read-out: Solubility): < 5000 µg/mL
solubility ([2]; organic solvent or mixture, thermodynamic from solid, Acetonitrile (ACN), 25° C., read-out: Solubility): < 5000 µg/mL
solubility ([2]; organic solvent or mixture, thermodynamic from solid, Acetonitrile (ACN), 50° C., read-out: Solubility): < 5000 µg/mL
solubility ([2]; organic solvent or mixture, thermodynamic from solid, Dichloromethane (DCM), 25° C., read-out: Solubility): < 5000 µg/mL
solubility ([2]; organic solvent or mixture, thermodynamic from solid, Dimethylsulfoxide (DMSO), 25° C., read-out: Solubility): > 100000 µg/mL
solubility ([2]; organic solvent or mixture, thermodynamic from solid, Ethyl acetate (EtOAc), 25° C., read-out: Solubility): < 5000 µg/mL
solubility ([2]; organic solvent or mixture, thermodynamic from solid, Ethyl acetate (EtOAc), 50° C., read-out: Solubility): < 5000 µg/mL
solubility ([2]; organic solvent or mixture, thermodynamic from solid, Ethyl alcohol (EtOH), 25° C., read-out: Solubility): < 5000 µg/mL
solubility ([2]; organic solvent or mixture, thermodynamic from solid, Ethyl alcohol (EtOH), 50° C., read-out: Solubility): < 5000 µg/mL
solubility ([2]; organic solvent or mixture, thermodynamic from solid, Heptane, 25° C., read-out: Solubility): < 5000 µg/mL
solubility ([2]; organic solvent or mixture, thermodynamic from solid, Heptane, 50° C., read-out: Solubility): < 5000 µg/mL
solubility ([2]; organic solvent or mixture, thermodynamic from solid, Isopropyl acetate (IPAc), 25° C., read-out: Solubility): < 5000 µg/mL
solubility ([2]; organic solvent or mixture, thermodynamic from solid, Isopropyl acetate (IPAc), 50° C., read-out: Solubility): < 5000 µg/mL
solubility ([2]; organic solvent or mixture, thermodynamic from solid, Methanol (MeOH), 25° C., read-out: Solubility): < 5000 µg/mL
solubility ([2]; organic solvent or mixture, thermodynamic from solid, Methanol (MeOH), 50° C., read-out: Solubility): 5000 to 7000 µg/mL (≈ 15.3 to 21.4 mM)
solubility ([2]; organic solvent or mixture, thermodynamic from solid, Methyl ethyl ketone (MEK), 25° C., read-out: Solubility): < 5000 µg/mL
solubility ([2]; organic solvent or mixture, thermodynamic from solid, Methyl ethyl ketone (MEK), 50° C., read-out: Solubility): < 5000 µg/mL
solubility ([2]; organic solvent or mixture, thermodynamic from solid, Methyl isobutyl ketone (MIBK), 25° C., read-out: Solubility): < 5000 µg/mL
solubility ([2]; organic solvent or mixture, thermodynamic from solid, Methyl isobutyl ketone (MIBK), 50° C., read-out: Solubility): < 5000 µg/mL
solubility ([2]; organic solvent or mixture, thermodynamic from solid, Methyl tert-butyl ether (MtBE), 25° C., read-out: Solubility): < 5000 µg/mL
solubility ([2]; organic solvent or mixture, thermodynamic from solid, Methyl tert-butyl ether (MtBE), 50° C., read-out: Solubility): < 5000 µg/mL
solubility ([2]; organic solvent or mixture, thermodynamic from solid, N,N-Dimethylformamide (DMF), 25° C., read-out: Solubility): 67000 to 100000 µg/mL (≈ 205 to 305 mM)
solubility ([2]; organic solvent or mixture, thermodynamic from solid, N,N-Dimethylformamide (DMF), 50° C., read-out: Solubility): > 100000 µg/mL
solubility ([2]; organic solvent or mixture, thermodynamic from solid, Tetrahydrofuran (THF), 25° C., read-out: Solubility): 8000 to 10000 µg/mL (≈ 24.4 to 30.5 mM)
solubility ([2]; organic solvent or mixture, thermodynamic from solid, Tetrahydrofuran (THF), 50° C., read-out: Solubility): 9000 to 13000 µg/mL (≈ 27.5 to 39.7 mM)
solubility ([2]; organic solvent or mixture, thermodynamic from solid, Toluene, 25° C., read-out: Solubility): < 5000 µg/mL
solubility ([2]; organic solvent or mixture, thermodynamic from solid, Toluene, 50° C., read-out: Solubility): < 5000 µg/mL
solubility ([2]; thermodynamic from solid, Water, 25° C., read-out: Solubility): < 5000 µg/mL
solubility ([2]; thermodynamic from solid, Water, 50° C., read-out: Solubility): < 5000 µg/mL
Final pH value ([3]; FaSSIF, initial pH 6.52): 6.50
Final pH value ([3]; FeSSIF, initial pH 5.07): 5.09
Final pH value ([3]; SGF, initial pH 1.92): 2.28
solubility at 24 h ([3]; aqueous buffer, pH 2.0 buffer, initial pH 1.98, 37° C., 24 hrs): 2060 µg/mL (≈ 6.29 mM)
solubility at 24 h ([3]; aqueous buffer, pH 4.0 buffer, initial pH 4.01, 37° C., 24 hrs): 31 µg/mL (≈ 0.0947 mM)
solubility at 24 h ([3]; aqueous buffer, pH 6.0 buffer, initial pH 5.90, 37° C., 24 hrs): 2 µg/mL (≈ 0.00611 mM)
Final pH value ([3]; pH 2.0 buffer, initial pH 1.98): 2.25
Final pH value ([3]; pH 4.0 buffer, initial pH 4.01): 4.05
Final pH value ([3]; pH 6.0 buffer, initial pH 5.90): 5.88
Final pH value ([3]; pH 8.0 buffer, initial pH 8.04): 8.08
solubility at 24 h ([3]; simulated gastric fluid, SGF, initial pH 1.92, 37° C., 24 hrs): 2490 µg/mL (≈ 7.61 mM)
solubility at 24 h ([3]; simulated gastric fluid, in SGF and pH 2.0 buffer, 37° C., called medium solubility): 2000 to 2500 µg/mL (≈ 6.11 to 7.64 mM)
solubility at 24 h ([3]; FeSSIF, initial pH 5.07, 37° C., 24 hrs): 45 µg/mL (≈ 0.137 mM)
Final pH value ([3]; water): 8.84
Structure (SMILES): Cc1ccncc1-c1ccc2nc(NC(=O)[C@@H]3C[C@@H]3F)sc2c1 [free base, (1S,2S)-2-fluoro-N-(6-(4-methylpyridin-3-yl)benzo[d]thiazol-2-yl)cyclopropane-1-carboxamide]
